Laboratory results reported in US11512054B2, “Pesticidal compounds” (BASF SE, priority 2017, dated 2022).

What was measured:
Format in all cases: in vivo
[1] = system: yellow fever mosquito (Aedes aegypti); experiment: whole plant or invertebrate; settings: 48 h, larval mortality visually assessed after 2 days, read-out: mortality in comparison with untreated controls
Description: For evaluating control of yellow fever mosquito (Aedes aegypti) the test unit consisted of 96-well-microtiter plates containing 200 μl of tap water per well and 5-15 freshly hatched A. aegypti larvae.
The active compounds or mixtures were formulated using a solution containing 75% (v/v) water and 25% (v/v) DMSO. Different concentrations of formulated compounds or mixtures were sprayed onto the insect diet at 2.5 μl, using a custom built micro atomizer, at two replications. For experimental mixtures in these tests identical volumes of both mixing partners at the desired concentrations respectively, were mixed together.
After application, microtiter plates were incubated at 28±1° C., 80±5% RH for 2 days. Larval mortality was then visually assessed.

[2] = system: Orchid Thrips (Dichromothrips corbetti); experiment: Action on orchid thrips, floral-immersion technique; settings: adult thrips, 72 hours after treatment, read-out: mortality in comparison with untreated controls
Description: Dichromothrips corbetti adults used for bioassay were obtained from a colony maintained continuously under laboratory conditions. For testing purposes, the test compound is diluted in a 1:1 mixture of acetone:water (vol:vol), plus Kinetic® HV at a rate of 0.01% v/v.
Thrips potency of each compound was evaluated by using a floral-immersion technique. All petals of individual, intact orchid flowers were dipped into treatment solution and allowed to dry in Petri dishes. Treated petals were placed into individual re-sealable plastic along with about 20 adult thrips. All test arenas were held under continuous light and a temperature of about 28° C. for duration of the assay. After 3 days, the numbers of live thrips were counted on each petal. The percent mortality was recorded 72 hours after treatment.

[3] = system: boll weevil (Anthonomus grandis); experiment: Action on boll weevil, eggs on insect diet in 96-well microtiter plates; settings: 120 h, egg and larval mortality after 5 days, read-out: mortality in comparison with untreated controls
Description: For evaluating control of boll weevil (Anthonomus grandis) the test unit consisted of 96-well-microtiter plates containing an insect diet and 5-10 A. grandis eggs.
The compounds were formulated using a solution containing 75% (v/v) water and 25% (v/v) DMSO. Different concentrations of formulated compounds were sprayed onto the insect diet at 5 μl, using a custom built micro atomizer, at two replications.
After application, microtiter plates were incubated at about 25+1° C. and about 75+5% relative humidity for 5 days. Egg and larval mortality was then visually assessed.

[4] = system: tobacco budworm (Heliothis virescens); experiment: Action on tobacco budworm, eggs on insect diet in 96-well microtiter plates; settings: 120 h, egg and larval mortality after 5 days, read-out: mortality in comparison with untreated controls
Description: For evaluating control of tobacco budworm (Heliothis virescens) the test unit consisted of 96-well-microtiter plates containing an insect diet and 15-25 H. virescens eggs.
The compounds were formulated using a solution containing 75% v/v water and 25% v/v DMSO. Different concentrations of formulated compounds were sprayed onto the insect diet at 10 μl, using a custom built micro atomizer, at two replications.
After application, microtiter plates were incubated at about 28+1° C. and about 80+5% relative humidity for 5 days. Egg and larval mortality was then visually assessed.

[5] = system: Diamond Back Moth (Plutella xylostella); experiment: Action on diamond back moth, cabbage leaf dip; settings: foliar, 3rd instar larvae, 72 hours after treatment, read-out: mortality in comparison with untreated controls
Description: The active compound is dissolved at the desired concentration in a mixture of 1:1 (v/v) distilled water:acetone. Surfactant (Kinetic® HV) is added at a rate of 0.01% (v/v). The test solution is prepared at the day of use.
Leaves of cabbage were dipped in test solution and air-dried. Treated leaves were placed in petri dishes lined with moist filter paper and inoculated with ten 3rd instar larvae. Mortality was recorded 72 hours after treatment. Feeding damages were also recorded using a scale of 0-100%.

[6] = system: Silverleaf Whitefly (Bemisia argentifoli) (Adults); experiment: Action on silverleaf whitefly adults, sprayed cotton plants; settings: Bemisia argentifolii, 72 h, 3 days after treatment, read-out: mortality in comparison with untreated controls
Description: (§1) The active compounds were formulated by a Tecan liquid handler in 100% cyclohexanone as a 10,000 ppm solution supplied in tubes. The 10,000 ppm solution was serially diluted in 100% cyclohexanone to make interim solutions. These served as stock solutions for which final dilutions were made by the Tecan in 50% acetone:50% water (v/v) into 5 or 10 ml glass vials. A nonionic surfactant (Kinetic®) was included in the solution at a volume of 0.01% (v/v). The vials were then inserted into an automated electrostatic sprayer equipped with an atomizing nozzle for application to plants/insects.
Cotton plants at the cotyledon stage (one plant per pot) were sprayed by an automated electrostatic plant sprayer equipped with an atomizing spray nozzle. The plants were dried in the sprayer fume hood and then removed from the sprayer. Each pot was placed into a plastic cup and about 10 to 12 whitefly adults (approximately 3-5 days old) were introduced. The insects were collected using an aspirator and a nontoxic Tygon® tubing connected to a barrier pipette tip. The tip, containing the collected insects, was then gently inserted into the soil containing the treated plant, allowing insects to crawl out of the tip to reach the foliage for feeding. Cups were covered with a reusable screened lid. Test plants were maintained in a growth room at about 25° C. and about 20-40% relative humidity for 3 days, avoiding direct exposure to fluorescent light (24 hour photoperiod) to prevent trapping of heat inside the cup. Mortality was assessed 3 days after treatment, compared to untreated control plants.

[7] = system: Southern Armyworm (Spodoptera eridania), 2nd Instar Larvae; experiment: Action on southern armyworm, sprayed lima bean plants; settings: 96 h, 2nd instar larvae on lima bean, 4 days after treatment, read-out: mortality in comparison with untreated controls
Description: as §1, with “into 10” for “into 5”, “or 20” for “or 10”
Lima bean plants (variety Sieva) were grown 2 plants to a pot and selected for treatment at the 1st true leaf stage. Test solutions were sprayed onto the foliage by an automated electrostatic plant sprayer equipped with an atomizing spray nozzle. The plants were dried in the sprayer fume hood and then removed from the sprayer. Each pot was placed into perforated plastic bags with a zip closure. About 10 to 11 armyworm larvae were placed into the bag and the bags zipped closed. Test plants were maintained in a growth room at about 25° C. and about 20-40% relative humidity for 4 days, avoiding direct exposure to fluorescent light (24 hour photoperiod) to prevent trapping of heat inside the bags. Mortality and reduced feeding were assessed 4 days after treatment, compared to untreated control plants.

Structure (SMILES)	mortality at 800 ppm [1]	mortality at 500 ppm [2]	mortality at 800 ppm [3]	mortality at 800 ppm [4]	mortality at 500 ppm [5]	mortality at 300 ppm [6]	mortality at 300 ppm [7]
C/N=C(/c1nn(C)c2cc(/C=N/NC(=S)Nc3ccccc3C(C)C)ccc12)N(C)c1ccc(OC(F)(F)F)cc1 [Example C-3, 1-[(E)-[3-[(Z)—N,N′-dimethyl-N-[4-(trifluoromethoxy)phenyl]carbamimidoyl]-1-methyl-indazol-6-yl]methyleneamino]-3-(2-isopropylphenyl)thiourea]	≥ 50%	≥ 75%	≥ 75%	≥ 75%	≥ 75%	–	–
CO[C@@H]1[C@@H](OC)[C@H](C)O[C@@H](OC(=O)Nc2ccc3c(C(=S)N(C)c4ccc(OC(F)(F)F)cc4)nn(C)c3c2)[C@@H]1OC [Example C-4, [(2S,3R,4R,5S,6S)-3,4,5-trimethoxy-6-methyl-tetrahydropyran-2-yl]N-[1-methyl-3-[methyl-[4-(trifluoromethoxy)phenyl]carbamothioyl]indazol-6-yl]carbamate]	≥ 50%	≥ 75%	≥ 75%	≥ 75%	≥ 75%	≥ 75%	–
CON=C(Nc1ccc(OC(F)(F)F)cc1)c1nn(C)c2cc(/C=N/N=C3\SC(=O)CN3c3ccccc3C(C)C)ccc12 [Example C-6, 6-[(E)-[(Z)-[3-(2-isopropylphenyl)-5-oxo-thiazolidin-2-ylidene]hydrazono]methyl]-N′-methoxy-1-methyl-N-[4-(trifluoromethoxy)phenyl]indazole-3-carboxamidine]	≥ 50%	≥ 75%	≥ 75%	≥ 75%	≥ 75%	–	≥ 75%
CC(C)c1ccccc1NC(=S)N/N=C/c1ccc2c(/C(N)=N/c3ccc(OC(F)(F)F)cc3)nsc2c1 [Example C-20, 1-(2-isopropylphenyl)-3-[(E)-[3-[(Z)—N′-[4-(trifluoromethoxy)phenyl]carbamimidoyl]-1,2-benzothiazol-6-yl]methyleneamino]thiourea]	≥ 50%	≥ 75%	≥ 75%	≥ 75%	≥ 75%	–	–
CC(C)c1ccccc1N1C(=O)CS/C1=N\N=C\c1ccc2c(C(N)=Nc3ccc(OC(F)(F)F)cc3)nsc2c1 [Example C-21, 6-[(E)-[(Z)-[3-(2-isopropylphenyl)-4-oxo-thiazolidin-2-ylidene]hydrazono]methyl]-N′[4-(trifluoromethoxy)phenyl]-1,2-benzothiazole-3-carboxamidine]	≥ 50%	≥ 75%	≥ 75%	≥ 75%	≥ 75%	–	≥ 75%
CC(C)c1ccccc1NC(=S)N/N=C/c1ccc2c(/C=N/c3ccc(OC(F)(F)F)cc3)nn(C)c2c1 [Example C-24, 1-(2-isopropylphenyl)-3-[(E)-[1-methyl-3-[(E)-[4-(trifluoromethoxy)phenyl]iminomethyl]indazol-6-yl]methyleneamino]thiourea]	≥ 50%	–	–	≥ 75%	≥ 75%	–	–
CC(C)c1ccccc1N1C(=O)CS/C1=N\N=C\c1ccc2c(/C=N/c3ccc(OC(F)(F)F)cc3)nn(C)c2c1 [Example C-25, (2Z)-3-(2-isopropylphenyl)-2-[(E)-[1-methyl-3-[(E)-[4-(trifluoromethoxy)phenyl]iminomethyl]indazol-6-yl]methylenehydrazono]thiazolidin-4-one]	–	–	–	≥ 75%	≥ 75%	–	–
CC(C)c1ccccc1NC(=S)N/N=C/c1ccc2c(C(=N)Nc3ccc(OC(F)(F)F)cc3)nn(C)c2n1 [Example C-26, 1-(2-isopropylphenyl)-3-[(E)-[1-methyl-3-[N-[4-(trifluoromethoxy)phenyl]carbamimidoyl]pyrazolo[3,4-b]pyridin-6-yl]methyleneamino]thiourea]	≥ 50%	≥ 75%	≥ 75%	≥ 75%	≥ 75%	–	≥ 75%
CC(C)c1ccccc1N1C(=O)CS/C1=N\N=C\c1ccc2c(C(=N)Nc3ccc(OC(F)(F)F)cc3)nn(C)c2n1 [Example C-27, 6-[(E)-[(Z)-[3-(2-isopropylphenyl)-4-oxo-thiazolidin-2-ylidene]hydrazono]methyl]-1-methyl-N-[4-(trifluoromethoxy)phenyl]pyrazolo[3,4-b]pyridine-3-carboxamidine]	≥ 50%	≥ 75%	≥ 75%	≥ 75%	≥ 75%	–	≥ 75%
CC(C)c1ccccc1N1CCS/C1=N\N=C\c1ccc2c(C(=N)Nc3ccc(OC(F)(F)F)cc3)nn(C)c2c1 [Example C-36, 6-[(E)-[(Z)-[3-(2-isopropylphenyl)thiazolidin-2-ylidene]hydrazono]methyl]-1-methyl-N-[4-(trifluoromethoxy)phenyl]indazole-3-carboxamidine]	≥ 50%	≥ 75%	≥ 75%	≥ 75%	≥ 75%	–	–
CC(C)c1ccccc1N1CCCS/C1=N\N=C\c1ccc2c(C(=N)Nc3ccc(OC(F)(F)F)cc3)nn(C)c2c1 [Example C-37, 6-[(E)-[(Z)-[3-(2-isopropylphenyl)-1,3-thiazinan-2-ylidene]hydrazono]methyl]-1-methyl-N-[4-(trifluoromethoxy)phenyl]indazole-3-carboxamidine]	≥ 50%	≥ 75%	≥ 75%	≥ 75%	≥ 75%	–	–
